Measurements: ChEMBL document CHEMBL1201862, “PubChem BioAssay data set” (2004)
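48-hour exposure; five concentrations; linearly interpolated endpoints. GI50 marks 50% less growth.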 Active and inactive are the calls of the source. No stated cut-off is given here; in the data, active = GI50 up to about 1.1 µM and inactive = higher.

Key:
Test in all cases: DTP human tumour cell line panel, 48 h
[1] = system: SF-539
[2] = system: NCI-H522
[3] = system: U-251
[4] = system: OVCAR-3
[5] = system: HCC 2998
[6] = system: SW-620
[7] = system: MCF7
[8] = system: HT-29
[9] = system: CAKI-1
[10] = system: A498
[11] = system: SR
[12] = system: SK-OV-3
[13] = system: ACHN
[14] = system: Hs-578T
[15] = system: OVCAR-5
[16] = system: MOLT-4
[17] = system: SF-295
[18] = system: OVCAR-4
[19] = system: HOP-62
[20] = system: Malme-3M

Measured: GI50

CC(NNC(=O)c1ccncc1)c1ccc(Cl)c(Cl)c1 (stereo not given)
inactive: [1] > 100 µM | [2] > 100 µM | [3] > 100 µM | [4] > 100 µM | [5] > 100 µM | [6] > 100 µM | [7] > 100 µM | [8] > 100 µM | [9] > 100 µM | [10] 69.3 µM | [11] 60.8 µM | [12] 19.6 µM | [13] > 100 µM | [14] 86.9 µM | [15] > 100 µM | [16] 48.9 µM | [17] > 100 µM | [18] > 100 µM | [19] > 100 µM | [20] > 100 µM

CC1=NN(C(=O)CC(=O)Nc2ccc(Cl)cc2)C(=O)C1/N=N\c1ccc(S(=O)(=O)c2ccc(/N=N/C3C(=O)N(C(=O)CC(=O)Nc4ccc(Cl)cc4)N=C3C)cc2)cc1 (stereo not given)
inactive: [1] > 100 µM | [2] > 100 µM | [3] 22.4 µM | [4] > 100 µM | [5] > 100 µM | [6] > 100 µM | [7] > 100 µM | [8] > 100 µM | [9] > 100 µM | [10] > 100 µM | [11] > 100 µM | [12] > 100 µM | [13] 24.7 µM | [14] > 100 µM | [15] 42.3 µM | [16] > 100 µM | [17] > 100 µM | [18] > 100 µM | [19] 54.5 µM | [20] > 100 µM

CCN(C)c1nc(N(C)CC)c2nc(N(C)CC)nc(N(C)CC)c2n1
inactive: [1] > 100 µM | [2] > 100 µM | [3] > 100 µM | [4] > 100 µM | [5] > 100 µM | [6] > 100 µM | [7] > 100 µM | [8] > 100 µM | [9] > 100 µM | [10] > 100 µM | [11] 26.5 µM | [12] > 100 µM | [13] > 100 µM | [14] > 100 µM | [15] > 100 µM | [16] > 100 µM | [17] > 100 µM | [18] > 100 µM | [19] > 100 µM | [20] > 100 µM

COc1ccc(C2SCC(=O)N2c2ccc(-n3c(-c4ccccc4)nc4ccccc4c3=O)cc2)cc1OC (stereo not given)
inactive: [1] > 100 µM | [2] 90.6 µM | [3] > 100 µM | [4] > 100 µM | [5] > 100 µM | [6] > 100 µM | [7] > 100 µM | [8] > 100 µM | [9] > 100 µM | [10] > 100 µM | [11] > 100 µM | [12] > 100 µM | [13] > 100 µM | [14] 99.8 µM | [15] > 100 µM | [16] 24.5 µM | [17] > 100 µM | [18] > 10 µM | [19] > 100 µM | [20] > 100 µM
